{
  "source": "paper PMC4917279",
  "about": "(Journal of Medicinal Chemistry, 2016)",
  "test_system": "KYSE-150 esophageal xenograft",
  "type": "in vivo",
  "conditions": "(S)-4 500 mg/kg po qd; doxorubicin 10 mg/kg iv once at day 4",
  "data": [
    {"smiles": "COc1cccc2c1C(=O)c1c(O)c3c(c(O)c1C2=O)C[C@@](O)(C(=O)CO)C[C@@H]3O[C@H]1C[C@H](N)[C@H](O)[C@H](C)O1", "note": "[Doxorubicin, doxorubicin]", "values": [
      {"measurement": "Antitumor efficacy relative to vehicle control", "value": "no significant antitumor efficacy"}
    ]}
  ]
}
